Results published in ChEMBL document CHEMBL5113482, “Discovery of fused benzimidazole-imidazole autophagic flux inhibitors for treatment of triple-negative breast cancer” (Eur J Med Chem, 2022).
Calls of active or inactive are those of the source. The calls are words filed in the database; no cut-off is given here.

What was measured:
[1] = test system: MDA-MB-231; experiment: Antitumor activity against human MDA-MB-231 cells xenografted in ip dosed NOD/SCID mouse assessed as upregulation of p62 expression administered at 3 days interval for 24 days and measured on day 25 by Western blot analysis; assay type: functional, organism-based; settings: dose 5-15 mg/kg, time 25.0 day, DDE = dose-dependent effect
[2] = test system: MDA-MB-231; experiment: Cell cycle arrest in human MDA-MB-231 cells assessed as reduction in cyclin B expression measured after 48 hrs by Western blot analysis; assay type: functional, cell-based; settings: dose 5-20 µM, DDE = dose-dependent effect
[3] = test system: MDA-MB-468; experiment: Inhibition of autophagy in human MDA-MB-468 cells assessed as increase in p62 expression at 5 to 20 uM measured after 48 hrs by Western blot analysis; assay type: functional, cell-based; settings: dose 5-20 µM, DDE = dose-dependent effect
[4] = test system: PANC-1; experiment: Antiproliferative activity against human PANC cells assessed as cell growth inhibition measured after 48 hrs by MTT assay; assay type: functional, cell-based; settings: PANC-1, 48 h
[5] = biological target: T1, Nibrin (Homo sapiens) (UniProt O60934); experiment: Activation of NBS1 phosphorylation in human MDA-MB-231 cells at 5 to 20 uM measured after 6 to 48 hrs by Western blot analysis; assay type: cell-based; settings: filed as activator, dose 5-20 µM, time 6-48 hrs
T1 sequence (whole entry): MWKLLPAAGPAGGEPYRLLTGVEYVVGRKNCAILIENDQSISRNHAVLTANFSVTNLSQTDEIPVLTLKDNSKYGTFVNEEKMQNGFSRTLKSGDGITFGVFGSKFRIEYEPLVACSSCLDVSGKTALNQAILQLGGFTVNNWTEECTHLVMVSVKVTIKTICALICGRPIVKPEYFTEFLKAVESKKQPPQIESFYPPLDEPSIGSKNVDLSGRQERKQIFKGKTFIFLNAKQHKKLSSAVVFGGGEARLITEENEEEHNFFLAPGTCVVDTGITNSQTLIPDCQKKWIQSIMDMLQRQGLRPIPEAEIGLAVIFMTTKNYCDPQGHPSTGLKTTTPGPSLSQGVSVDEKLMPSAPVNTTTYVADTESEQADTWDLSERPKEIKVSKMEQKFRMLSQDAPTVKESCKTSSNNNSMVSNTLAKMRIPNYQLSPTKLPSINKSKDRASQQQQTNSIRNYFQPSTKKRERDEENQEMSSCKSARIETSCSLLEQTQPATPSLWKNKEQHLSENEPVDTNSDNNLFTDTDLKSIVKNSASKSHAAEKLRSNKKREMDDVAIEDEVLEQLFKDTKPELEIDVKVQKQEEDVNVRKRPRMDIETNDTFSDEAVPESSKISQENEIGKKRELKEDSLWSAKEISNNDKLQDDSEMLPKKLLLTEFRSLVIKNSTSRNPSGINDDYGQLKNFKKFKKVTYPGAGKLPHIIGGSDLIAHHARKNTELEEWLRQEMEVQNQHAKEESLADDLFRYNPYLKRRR

[6] = test system: MDA-MB-468; experiment: Antiproliferative activity against human MDA-MB-468 cells assessed as cell growth inhibition measured after 48 hrs by MTT assay; assay type: functional, cell-based; settings: MDA-MB-468, 48 h
[7] = test system: MDA-MB-231; experiment: Cell cycle arrest in human MDA-MB-231 cells assessed as reduction in cyclin A expression measured after 48 hrs by Western blot analysis; assay type: functional, cell-based; settings: dose 5-20 µM, DDE = dose-dependent effect
[8] = test system: MDA-MB-468; experiment: Induction of apoptosis in human MDA-MB-468 cells assessed as increase in cleaved PARP expression measured after 48 hrs by Western blot analysis; assay type: functional, cell-based; settings: dose 5-20 µM, DDE = dose-dependent effect
[9] = test system: MDA-MB-231; experiment: Induction of apoptosis in human MDA-MB-231 cells assessed as increase in Bak expression measured after 48 hrs by Western blot analysis; assay type: functional, cell-based; settings: dose 5-20 µM, DDE = dose-dependent effect
[10] = test system: HeLa; experiment: Inhibition of autophagic flux in human HeLa cells expressing mRFP-EGFP-LC3B assessed as blockage of autophagosome-lysosome fusion by measuring accumulation of yellow fluorescent vesicles; assay type: functional, cell-based
[11] = test system: MDA-MB-231; experiment: Inhibition of autophagic flux in human MDA-MB-231 cells assessed as increase in nuclear p62 expression measured after 48 hrs by Western blot analysis; assay type: functional, cell-based; settings: dose 5-20 µM, DDE = dose-dependent effect
[12] = test system: MDA-MB-468; experiment: Antiproliferative activity against human MDA-MB-468 cells assessed as reduction in Ki67 expression measured after 48 hrs by immunofluorescence analysis; assay type: functional, cell-based
[13] = test system: MDA-MB-231; experiment: Induction of apoptosis in human MDA-MB-231 cells assessed as increase in Bax expression measured after 48 hrs by Western blot analysis; assay type: functional, cell-based; settings: dose 5-20 µM, DDE = dose-dependent effect
[14] = test system: MDA-MB-231; experiment: Antiproliferative activity against human MDA-MB-231 cells assessed as cell growth inhibition measured after 48 hrs by MTT assay; assay type: functional, cell-based; settings: MDA-MB-231, 48 h
[15] = test system: MDA-MB-468; experiment: Induction of mitochondrial membrane potential loss in human MDA-MB-468 cells at 20 uM measured after 48 hrs by JC-1 staining based assay relative to control; assay type: functional
[16] = test system: MDA-MB-468; experiment: Induction of apoptosis in human MDA-MB-468 cells assessed as increase in cleaved caspase-9 expression measured after 48 hrs by Western blot analysis; assay type: functional, cell-based; settings: dose 5-20 µM, DDE = dose-dependent effect
[17] = test system: MDA-MB-231; experiment: Inhibition of autophagic flux in human MDA-MB-231 cells assessed as reduction in polyubiquitinated H2A expression measured after 48 hrs by Western blot analysis; assay type: functional, cell-based
[18] = test system: MDA-MB-231; experiment: Induction of apoptosis in human MDA-MB-231 cells assessed as increase in cleaved caspase-9 expression measured after 48 hrs by Western blot analysis; assay type: functional, cell-based; settings: dose 5-20 µM, DDE = dose-dependent effect
[19] = test system: MDA-MB-468; experiment: Cell cycle arrest in human MDA-MB-468 cells assessed as reduction in cyclin A expression measured after 48 hrs by Western blot analysis; assay type: functional, cell-based; settings: dose 5-20 µM, DDE = dose-dependent effect
[20] = test system: ASPC1; experiment: Antiproliferative activity against human ASPC cells assessed as cell growth inhibition measured after 48 hrs by MTT assay; assay type: functional, cell-based; settings: ASPC1, 48 h
[21] = test system: MDA-MB-231; experiment: Inhibition of colony formation in human MDA-MB-231 cells at 5 to 20 umol/l pretreated for 48 hrs followed by replacement of fresh medium and measured after 15 days by crystal violet staining based assay; assay type: functional, cell-based; settings: dose 5-20 µmol/L
[22] = test system: MDA-MB-468; experiment: Inhibition of autophagic flux in human MDA-MB-468 cells assessed as reduction in polyubiquitinated H2A expression measured after 48 hrs by Western blot analysis; assay type: functional, cell-based
[23] = test system: MDA-MB-231; experiment: Antitumor activity against human MDA-MB-231 cells xenografted in ip dosed NOD/SCID mouse assessed as upregulation of LC3B-II expression administered at 3 days interval for 24 days and measured on day 25 by Western blot analysis; assay type: functional, organism-based; settings: dose 5-15 mg/kg, time 25.0 day, DDE = dose-dependent effect
[24] = test system: MDA-MB-231; experiment: Inhibition of autophagic flux in human MDA-MB-231 cells assessed as increase in cytoplasmic p62 expression measured after 48 hrs by Western blot analysis; assay type: functional, cell-based; settings: dose 5-20 µM, DDE = dose-dependent effect

IC50 [4]: 19.2 µM | Activity [5]: Active | IC50 [6]: 6.03 µM | IC50 [14]: 8.3 µM | IC50 [20]: 26.9 µM
Compound: O=C(NC1CCCCC1)c1[nH]cnc1-c1nc2ccccc2[nH]1
Activity [1]: Dde | Activity [2]: Dde | inhibition [3]: Dde | Activity [7]: Dde | Activity [8]: Dde | Activity [9]: Dde | inhibition [10]: Active | inhibition [11]: Dde | Activity [12]: Active | Activity [13]: Dde | Activity [15]: 50% | Activity [16]: Dde | inhibition [17]: Active | Activity [18]: Dde | Activity [19]: Dde | inhibition [21]: Active | inhibition [22]: Active | Activity [23]: Dde | inhibition [24]: Dde
